Data as given in the supplement of paper PMC10307832.

Assays:
Assay in all cases: relative viability (nuclei count vs DMSO), 5 days (fraction); higher = more cells survive
NCI-H1944 = system: NCI-H1944
In short: (§1)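 After 5 days of treatment, lung cancer cells in 1536-well plates were fixed and stained in a single step (final 0.05% Triton X-100, 1% formaldehyde, 1 ug/ml Hoechst) and their nuclei counted on 4× images. Treatment had been applied by pin tool the day after seeding as one drug alone or as a fixed anchor-drug dose with five library-drug doses (not always all listed) in √10 steps. Relative viability is the nuclei count of treated wells divided by that of vehicle wells, and values are medians of duplicate plates.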

NCI-H1395 = system: NCI-H1395
In short: as §1

ABC-1 = system: ABC-1
In short: as §1

PC-3 [JPC-3] = system: PC-3 [JPC-3]
In short: as §1

RERF-LC-KJ = system: RERF-LC-KJ
In short: as §1

NCI-H1793 = system: NCI-H1793
In short: as §1

UMC-11 = system: UMC-11
In short: as §1

NCI-H2170 = system: NCI-H2170
In short: as §1

NCI-H2405 = system: NCI-H2405
In short: as §1

ChaGo-K-1 = system: ChaGo-K-1
In short: as §1

HCC-366 = system: HCC-366
In short: as §1

Question: `CCN(CC)CCCCNc1ncc2cc(-c3cc(OC)cc(OC)c3)c(NC(=O)NC(C)(C)C)nc2n1` + Cc1nc(Nc2ncc(C(=O)Nc3c(C)cccc3Cl)s2)cc(N2CCN(CCO)CC2)n1 [Dasatinib] (partner 0.075 µM) was tested. Which relative viability (NCI-H1944; first compound 0.01 µM) did it give?
Answer: Its relative viability is 0.197.

Question: And the relative viability (NCI-H1944; first compound 0.03162 µM)?
Answer: Its relative viability is 0.212.

Question: What about the relative viability (NCI-H1944; first compound 0.1 µM) of the same compound?
Answer: Its relative viability is 0.22.

Question: What about the relative viability (NCI-H1944; first compound 0.3162 µM) of the same compound?
Answer: Its relative viability is 0.236.

Question: What about the relative viability (NCI-H1944; first compound 1 µM) of the same compound?
Answer: The relative viability was 0.196.

Question: And the relative viability (NCI-H1395; first compound 0.01 µM)?
Answer: Its relative viability is 0.421.

Question: And the relative viability (NCI-H1395; first compound 0.03162 µM)?
Answer: Its relative viability is 0.422.

Question: What about the relative viability (NCI-H1395; first compound 0.1 µM) of the same compound?
Answer: Its relative viability is 0.753.

Question: And the relative viability (NCI-H1395; first compound 0.3162 µM)?
Answer: The relative viability was 0.386.

Question: And the relative viability (NCI-H1395; first compound 1 µM)?
Answer: The relative viability was 0.411.

Question: And the relative viability (ABC-1; first compound 0.01 µM)?
Answer: The relative viability was 0.617.

Question: And the relative viability (ABC-1; first compound 0.03162 µM)?
Answer: Its relative viability is 0.541.

Question: What about the relative viability (ABC-1; first compound 0.1 µM) of the same compound?
Answer: The relative viability was 0.618.

Question: What about the relative viability (ABC-1; first compound 0.3162 µM) of the same compound?
Answer: The relative viability was 0.548.

Question: What about the relative viability (ABC-1; first compound 1 µM) of the same compound?
Answer: Its relative viability is 0.535.

Question: And the relative viability (PC-3 [JPC-3]; first compound 0.01 µM)?
Answer: Its relative viability is 1.05.

Question: What about the relative viability (PC-3 [JPC-3]; first compound 0.03162 µM) of the same compound?
Answer: The relative viability was 1.07.

Question: And the relative viability (PC-3 [JPC-3]; first compound 0.1 µM)?
Answer: Its relative viability is 1.06.

Question: What about the relative viability (PC-3 [JPC-3]; first compound 0.3162 µM) of the same compound?
Answer: Its relative viability is 1.08.

Question: And the relative viability (PC-3 [JPC-3]; first compound 1 µM)?
Answer: The relative viability was 0.909.

Question: What about the relative viability (RERF-LC-KJ; first compound 0.01 µM) of the same compound?
Answer: Its relative viability is 0.783.

Question: And the relative viability (RERF-LC-KJ; first compound 0.03162 µM)?
Answer: The relative viability was 1.

Question: And the relative viability (RERF-LC-KJ; first compound 0.1 µM)?
Answer: Its relative viability is 0.843.

Question: What about the relative viability (RERF-LC-KJ; first compound 0.3162 µM) of the same compound?
Answer: The relative viability was 0.947.

Question: What about the relative viability (RERF-LC-KJ; first compound 1 µM) of the same compound?
Answer: Its relative viability is 0.738.

Question: And the relative viability (NCI-H1793; first compound 0.01 µM)?
Answer: Its relative viability is 0.369.

Question: What about the relative viability (NCI-H1793; first compound 0.03162 µM) of the same compound?
Answer: Its relative viability is 0.312.

Question: What about the relative viability (NCI-H1793; first compound 0.1 µM) of the same compound?
Answer: The relative viability was 0.372.

Question: And the relative viability (NCI-H1793; first compound 0.3162 µM)?
Answer: The relative viability was 0.283.

Question: And the relative viability (NCI-H1793; first compound 1 µM)?
Answer: The relative viability was 0.271.

Question: What about the relative viability (UMC-11; first compound 0.01 µM) of the same compound?
Answer: Its relative viability is 0.541.

Question: What about the relative viability (UMC-11; first compound 0.03162 µM) of the same compound?
Answer: Its relative viability is 0.485.

Question: What about the relative viability (UMC-11; first compound 0.1 µM) of the same compound?
Answer: The relative viability was 0.722.

Question: And the relative viability (UMC-11; first compound 0.3162 µM)?
Answer: The relative viability was 0.581.

Question: What about the relative viability (UMC-11; first compound 1 µM) of the same compound?
Answer: The relative viability was 0.405.

Question: What about the relative viability (NCI-H2170; first compound 0.01 µM) of the same compound?
Answer: The relative viability was 0.537.

Question: What about the relative viability (NCI-H2170; first compound 0.03162 µM) of the same compound?
Answer: Its relative viability is 0.574.

Question: And the relative viability (NCI-H2170; first compound 0.1 µM)?
Answer: Its relative viability is 0.643.

Question: And the relative viability (NCI-H2170; first compound 0.3162 µM)?
Answer: Its relative viability is 0.818.

Question: What about the relative viability (NCI-H2170; first compound 1 µM) of the same compound?
Answer: The relative viability was 0.539.

Question: And the relative viability (NCI-H2405; first compound 0.01 µM)?
Answer: The relative viability was 0.193.

Question: What about the relative viability (NCI-H2405; first compound 0.03162 µM) of the same compound?
Answer: Its relative viability is 0.202.

Question: What about the relative viability (NCI-H2405; first compound 0.1 µM) of the same compound?
Answer: The relative viability was 0.466.

Question: And the relative viability (NCI-H2405; first compound 0.3162 µM)?
Answer: Its relative viability is 0.205.

Question: What about the relative viability (NCI-H2405; first compound 1 µM) of the same compound?
Answer: Its relative viability is 0.186.

Question: And the relative viability (ChaGo-K-1; first compound 0.01 µM)?
Answer: The relative viability was 0.584.

Question: And the relative viability (ChaGo-K-1; first compound 0.03162 µM)?
Answer: Its relative viability is 0.602.

Question: And the relative viability (ChaGo-K-1; first compound 0.1 µM)?
Answer: Its relative viability is 0.655.

Question: And the relative viability (ChaGo-K-1; first compound 0.3162 µM)?
Answer: The relative viability was 0.643.

Question: And the relative viability (ChaGo-K-1; first compound 1 µM)?
Answer: Its relative viability is 0.514.

Question: And the relative viability (HCC-366; first compound 0.01 µM)?
Answer: The relative viability was 0.601.

Question: And the relative viability (HCC-366; first compound 0.03162 µM)?
Answer: The relative viability was 0.686.

Question: What about the relative viability (HCC-366; first compound 0.1 µM) of the same compound?
Answer: Its relative viability is 0.942.

Question: What about the relative viability (HCC-366; first compound 0.3162 µM) of the same compound?
Answer: Its relative viability is 0.659.

Question: What about the relative viability (HCC-366; first compound 1 µM) of the same compound?
Answer: Its relative viability is 0.613.
